Data: the supplement of paper PMC10307832

Experiments:
Experiment in all cases: relative viability (nuclei count vs DMSO), 5 days (fraction); higher = more cells survive
ALW-II-49-7 + Trametinib = compound: Cc1ccc(C(=O)Nc2cccc(C(F)(F)F)c2)cc1Nc1cncc(C(N)=O)c1 [ALW-II-49-7] + CC(=O)Nc1cccc(-n2c(=O)n(C3CC3)c(=O)c3c(Nc4ccc(I)cc4F)n(C)c(=O)c(C)c32)c1 [Trametinib] (partner 0.02 µM)
How it was run: (§1)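 Medians of duplicate plates are given as relative viability. That measure is the nuclei count in treated wells divided by the count in vehicle wells. Counts were taken on 4× images of lung cancer cell lines in 1536-well plates, 5 days after pin-tool dosing the day after seeding with one drug alone or a fixed anchor-drug dose plus five library-drug doses (not always all listed) in √10 steps.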

XMD13-2 + Trametinib = compound: C1CC1C(=O)NC2=NNC3=C2C=CC(=C3)C4=CC(=CC=C4)C(=O)NC5CC5 [XMD13-2] + CC(=O)Nc1cccc(-n2c(=O)n(C3CC3)c(=O)c3c(Nc4ccc(I)cc4F)n(C)c(=O)c(C)c32)c1 [Trametinib] (partner 0.02 µM)
How it was run: as §1

XMD13-2 + Dasatinib = compound: C1CC1C(=O)NC2=NNC3=C2C=CC(=C3)C4=CC(=CC=C4)C(=O)NC5CC5 [XMD13-2] + Cc1nc(Nc2ncc(C(=O)Nc3c(C)cccc3Cl)s2)cc(N2CCN(CCO)CC2)n1 [Dasatinib] (partner 0.075 µM)
How it was run: as §1

XMD13-2 + Tozasertib = compound: C1CC1C(=O)NC2=NNC3=C2C=CC(=C3)C4=CC(=CC=C4)C(=O)NC5CC5 [XMD13-2] + Cc1cc(Nc2cc(N3CCN(C)CC3)nc(Sc3ccc(NC(=O)C4CC4)cc3)n2)n[nH]1 [Tozasertib] (partner 0.1 µM)
How it was run: as §1

Row | Cell Line | relative viability (ALW-II-49-7 + Trametinib; first compound 0.08 µM) | relative viability (ALW-II-49-7 + Trametinib; first compound 0.253 µM) | relative viability (ALW-II-49-7 + Trametinib; first compound 0.8 µM) | relative viability (ALW-II-49-7 + Trametinib; first compound 2.53 µM) | relative viability (ALW-II-49-7 + Trametinib; first compound 8 µM) | relative viability (XMD13-2 + Trametinib; first compound 0.05 µM) | relative viability (XMD13-2 + Trametinib; first compound 0.1581 µM) | relative viability (XMD13-2 + Trametinib; first compound 0.5 µM) | relative viability (XMD13-2 + Trametinib; first compound 1.581 µM) | relative viability (XMD13-2 + Trametinib; first compound 5 µM) | relative viability (XMD13-2 + Dasatinib; first compound 0.05 µM) | relative viability (XMD13-2 + Dasatinib; first compound 0.1581 µM) | relative viability (XMD13-2 + Dasatinib; first compound 0.5 µM) | relative viability (XMD13-2 + Dasatinib; first compound 1.581 µM) | relative viability (XMD13-2 + Dasatinib; first compound 5 µM) | relative viability (XMD13-2 + Tozasertib; first compound 0.05 µM) | relative viability (XMD13-2 + Tozasertib; first compound 0.1581 µM) | relative viability (XMD13-2 + Tozasertib; first compound 0.5 µM) | relative viability (XMD13-2 + Tozasertib; first compound 1.581 µM) | relative viability (XMD13-2 + Tozasertib; first compound 5 µM)
1 | NCI-H2126 | 0.595 | 0.561 | 0.541 | 0.526 | 0.574 | 0.571 | 0.55 | 0.588 | 0.561 | 0.531 | 0.76 | 0.595 | 0.633 | 0.535 | 0.561 | 0.953 | 0.879 | 0.81 | 0.861 | 0.985
2 | NCI-H2170 | 0.925 | 0.937 | 0.977 | 0.924 | 0.854 | 0.94 | 0.929 | 0.965 | 0.883 | 0.95 | 0.791 | 0.518 | 0.601 | 0.55 | 0.541 | 0.646 | 0.737 | 0.774 | 0.672 | 0.719
3 | NCI-H2228 | 0.413 | 0.408 | 0.406 | 0.521 | 0.373 | 0.672 | 0.577 | 0.517 | 0.602 | 0.634 | 0.753 | 0.586 | 0.59 | 0.384 | 0.532 | 0.267 | 0.32 | 0.273 | 0.209 | 0.237
4 | NCI-H2342 | 0.709 | 0.817 | 0.828 | 0.69 | 0.786 | 0.766 | 0.917 | 0.697 | 0.912 | 0.822 | 0.334 | 0.357 | 0.334 | 0.313 | 0.349 | 0.547 | 0.421 | 0.525 | 0.603 | 0.575
5 | NCI-H2347 | 0.326 | 0.299 | 0.252 | 0.297 | 0.28 | 0.294 | 0.268 | 0.211 | 0.291 | 0.265 | 0.638 | 0.292 | 0.284 | 0.298 | 0.304 | 0.559 | 0.577 | 0.727 | 0.487 | 0.517
6 | NCI-H2405 | 0.662 | 0.699 | 0.637 | 0.47 | 0.467 | 0.73 | 0.656 | 0.628 |  | 0.65 | 0.211 | 0.259 | 0.239 | 0.171 | 0.226 | 0.788 | 0.645 | 0.801 | 0.707 | 0.712
7 | NCI-H3122 | 0.243 | 0.235 | 0.292 | 0.311 | 0.222 | 0.251 | 0.198 | 0.205 | 0.235 | 0.214 | 1.01 | 0.863 | 0.843 | 0.723 | 0.77 | 0.467 | 0.395 | 0.378 | 0.377 | 0.373
8 | PC-3 [JPC-3] | 0.676 | 0.786 | 0.745 | 0.809 | 0.847 | 0.681 | 0.721 | 0.737 |  | 0.778 | 1.22 | 0.991 | 1 | 0.959 | 1.11 | 0.887 | 0.911 | 0.902 | 0.908 | 0.874
9 | PC-14 | 0.722 | 0.826 | 0.717 | 0.683 | 0.665 | 0.892 | 0.713 | 0.788 | 0.723 | 0.983 | 0.279 | 0.296 | 0.335 | 0.242 | 0.317 | 0.605 | 0.657 | 0.632 | 0.608 | 0.562
10 | RERF-LC-KJ | 0.867 | 0.923 | 0.816 | 0.749 | 0.833 | 0.984 | 0.83 | 0.889 | 0.8 | 0.782 | 0.983 | 0.918 | 0.801 | 0.72 | 0.694 | 0.613 | 0.515 | 0.59 | 0.466 | 0.523
11 | SK-LU-1 | 0.569 | 0.571 | 0.486 | 0.408 | 0.442 | 0.513 | 0.474 | 0.573 | 0.56 | 0.511 | 0.195 | 0.185 | 0.199 | 0.164 | 0.199 | 0.335 | 0.338 | 0.432 | 0.309 | 0.323
12 | SK-MES-1 | 0.573 | 0.628 | 0.562 | 0.6 | 0.447 | 0.576 | 0.532 | 0.508 | 0.508 | 0.58 | 0.347 | 0.349 | 0.296 | 0.325 | 0.374 | 0.998 | 0.879 | 0.919 | 0.804 | 0.72
13 | SW 900 | 0.864 | 0.869 |  | 0.727 | 0.874 | 0.924 | 0.943 | 0.993 | 0.859 | 0.881 | 0.616 | 0.537 | 0.601 | 0.578 | 0.652 | 0.62 | 0.573 | 0.506 | 0.473 | 0.533
14 | SW 1573 | 0.561 | 0.556 | 0.611 | 0.637 | 0.491 | 0.585 | 0.53 | 0.674 | 0.533 | 0.536 | 0.593 | 0.458 | 0.514 | 0.454 | 0.397 | 0.196 | 0.167 | 0.155 | 0.145 | 0.354
